We go through one compound from article PMC5653977 (EMBO Molecular Medicine, 2017).

In one experiment the target is T1, ERBB4_1-685 dimers (Homo sapiens, UniProt Q15303).
T1 sequence (Q15303 26-685) 1: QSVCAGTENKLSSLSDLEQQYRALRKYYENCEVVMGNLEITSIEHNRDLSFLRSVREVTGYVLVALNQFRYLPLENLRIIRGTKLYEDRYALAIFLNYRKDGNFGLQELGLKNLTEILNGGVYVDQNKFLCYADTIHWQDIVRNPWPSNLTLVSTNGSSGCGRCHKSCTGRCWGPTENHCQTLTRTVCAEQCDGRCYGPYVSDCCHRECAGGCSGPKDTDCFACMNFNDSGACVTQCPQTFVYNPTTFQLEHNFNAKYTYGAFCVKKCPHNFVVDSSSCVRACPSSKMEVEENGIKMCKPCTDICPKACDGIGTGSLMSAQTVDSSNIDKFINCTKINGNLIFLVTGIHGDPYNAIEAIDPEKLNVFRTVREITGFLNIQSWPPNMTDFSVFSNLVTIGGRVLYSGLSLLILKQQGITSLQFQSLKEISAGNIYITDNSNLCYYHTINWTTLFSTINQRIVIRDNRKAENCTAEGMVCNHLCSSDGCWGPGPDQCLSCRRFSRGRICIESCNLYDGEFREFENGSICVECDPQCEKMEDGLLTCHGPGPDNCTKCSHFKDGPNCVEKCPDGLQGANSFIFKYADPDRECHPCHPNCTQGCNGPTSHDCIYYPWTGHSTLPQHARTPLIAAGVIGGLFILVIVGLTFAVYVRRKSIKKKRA
T1 sequence (Q15303 26-685) 2: T1 sequence (Q15303 26-685) 1
Description: Truncated ERBB4 (amino acids 1-685) dimerization split TEV assay. The following applies: PC12 cells, 10 ng/ml EGFld.

The next experiment has as its target T2, Erbb4 (Mus musculus, UniProt Q61527).
T2 construct: from tissue; host or cells: prefrontal cortex of Nrg1-tg and wt mice (C57Bl/6)
Description: Western blot of phospho-Erbb4 in prefrontal cortex of spironolactone-treated mice. It is filed as in vivo. Conditions: Nrg1-tg mice, 50 mg/kg s.c. daily for 21 days, prefrontal cortex lysates. How it is done:
For the generation of lysates, the isolated tissue was immediately placed into cooled (4°C) sucrose buffer (320 mM sucrose, 10 mM Tris–HCl, 1 mM NaHCO3, 1 mM MgCl2, supplemented with 10 mM NaF, 1 mM […], 1 mM ZnCl2, 4.5 mM Na4P20_7 as phosphatase inhibitors, and the complete protease inhibitor cocktail (Roche)), homogenized using an ultra‐turrax (IKA GmbH, Staufen, Germany), sonicated (3 pulses for 10 s), and denatured for 10 min at 70°C in LDS sample buffer.
Each blot was replicated two times.
Treatment was continued throughout the behavioral analysis period.

Another experiment concerns NRG1-ERBB4 signaling. The experiment is described as follows: Nrg1-ERBB4-PIK3R1 split TEV co-culture compound screen of the NIH Clinical Collection. It is filed as cell-based, human. Conditions: compounds at 10 μM, 24 h; PC12 split TEV assay cells co-cultured with Nrg1-expressing PC12 cells; analysed with cellHTS2.

The structures appear in SMILES notation.

T2 sequence (Q61527 26-1308): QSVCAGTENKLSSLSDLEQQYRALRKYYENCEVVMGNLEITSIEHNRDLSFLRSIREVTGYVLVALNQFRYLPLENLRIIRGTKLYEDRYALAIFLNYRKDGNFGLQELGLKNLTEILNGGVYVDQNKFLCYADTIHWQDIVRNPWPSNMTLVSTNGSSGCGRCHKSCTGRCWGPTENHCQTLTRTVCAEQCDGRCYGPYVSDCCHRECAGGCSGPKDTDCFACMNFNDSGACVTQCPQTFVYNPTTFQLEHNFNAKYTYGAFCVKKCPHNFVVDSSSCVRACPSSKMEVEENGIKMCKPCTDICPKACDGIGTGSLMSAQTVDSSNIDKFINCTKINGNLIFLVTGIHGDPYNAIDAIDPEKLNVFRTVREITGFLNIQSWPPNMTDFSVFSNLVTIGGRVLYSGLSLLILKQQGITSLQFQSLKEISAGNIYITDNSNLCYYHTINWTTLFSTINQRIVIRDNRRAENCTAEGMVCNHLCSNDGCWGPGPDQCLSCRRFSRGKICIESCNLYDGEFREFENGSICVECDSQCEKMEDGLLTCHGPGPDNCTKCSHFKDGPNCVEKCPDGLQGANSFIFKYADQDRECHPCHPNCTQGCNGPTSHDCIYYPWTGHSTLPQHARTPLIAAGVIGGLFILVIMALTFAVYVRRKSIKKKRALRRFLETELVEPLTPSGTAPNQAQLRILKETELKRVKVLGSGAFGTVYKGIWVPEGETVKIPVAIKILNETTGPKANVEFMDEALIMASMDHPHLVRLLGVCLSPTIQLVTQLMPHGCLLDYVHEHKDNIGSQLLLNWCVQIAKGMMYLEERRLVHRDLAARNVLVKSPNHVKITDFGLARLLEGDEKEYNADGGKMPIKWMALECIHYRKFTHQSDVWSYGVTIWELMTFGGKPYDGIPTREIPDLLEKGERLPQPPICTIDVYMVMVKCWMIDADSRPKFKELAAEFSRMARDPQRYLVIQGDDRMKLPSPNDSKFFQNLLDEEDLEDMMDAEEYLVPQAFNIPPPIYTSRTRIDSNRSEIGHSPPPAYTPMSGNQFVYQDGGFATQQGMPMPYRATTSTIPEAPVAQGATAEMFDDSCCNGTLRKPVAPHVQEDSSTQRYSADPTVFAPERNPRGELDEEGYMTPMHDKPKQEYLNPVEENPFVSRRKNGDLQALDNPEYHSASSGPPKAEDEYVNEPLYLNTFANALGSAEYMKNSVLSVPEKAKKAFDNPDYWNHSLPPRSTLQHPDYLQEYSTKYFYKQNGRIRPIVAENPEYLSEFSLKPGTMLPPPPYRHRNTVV
Description for ERBB4_1-685 dimers: Individually re‐screened candidates were validated using a dose–response assay. PC12 cells were batch‐transfected as described in the section “Transfection of cells”, manually plated, and incubated for 24 h at 37°C and 5% CO2. Candidate small molecules were prepared in a series of dilutions using DMSO as diluent and ranging from 0.0001 to 100 μM at final concentrations, thus covering at least five orders of magnitude. Candidate dilutions were added, followed by the addition of 10,000 Nrg1‐expressing cells in 100 μl volume 30 min later. Cells were lysed in 40 μl Passive Lysis Buffer and analyzed in a Dual Luciferase Assay. Data were analyzed in Excel and GraphPad Prism. For single‐culture assays that used EGFld as stimulus, 100 μl assay medium containing EGFld (f.c. 10 ng/ml) was administered. […] Dose–response assays were run in six replicates per concentration and repeated at least two times. Data are shown as mean, and error bars represent SEM.

With `CC(=O)S[C@@H]1CC2=CC(=O)CC[C@]2(C)[C@H]2CC[C@@]3(C)[C@@H](CC[C@@]34CCC(=O)O4)[C@H]12` [Spironolactone], the “inhibitory effect on dimerization of truncated ERBB4” value against ERBB4_1-685 dimers is “no inhibitory effect”. Also, at Erbb4, the “phospho-Erbb4 levels (p-ERBB4-Y1284 antibody)” value is reported as “robust reduction”. This compound gave a Z-SCORE in the experiment on NRG1-ERBB4 signaling of 9.25.
